According to patent US20220332774A1, “THERAPEUTIC MITOCHONDRIAL PEPTIDES” (priority 2019, published 2022):

What was measured:
C2C12 Cells = test: Glucose utilization in cultured C2C12 cells (myotubes); format: cell-based, mouse; conditions: glucose concentration in medium relative to untreated cells; 5 μM peptide, 22 h
Method in brief: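 Differentiated mouse myotubes (5 days in 2% horse serum) serum-starved 5 h, then treated 22 h at 37 °C with peptide at 5 μM final (0.1% DMSO) in low-glucose (1 g/L) DMEM. Glucose remaining in medium measured colorimetrically at 570 nm. Expressed as percent of untreated control, from 2–3 experiments in triplicate.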

3T3-L1 Mouse Adipocytes = test: Free fatty acid levels in cultured 3T3-L1 mouse adipocytes (isoproterenol stimulated); format: cell-based; conditions: free fatty acid in medium; 5 μM peptide, 20-22 h pre-incubation then 3 h with 0.1 nM isoproterenol; isoproterenol alone = 100%
Method in brief: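 3T3-L1 cells differentiated 12 days, insulin withdrawn, then peptides added on day 13 at 5 μM (0.1% DMSO) for 20-22 h at 37° C. After 3 h in assay buffer, medium free fatty acids read at 540 nm. Values expressed as percent of 0.1 nM isoproterenol-alone control.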

H4-IIE Cells = test: Glucose production in cultured H4-IIE cells; format: cell-based, rat; conditions: glucose concentration in medium relative to untreated cells; 5 μM peptide, 24 h
Method in brief: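 Rat H4-IIE hepatoma cells primed overnight in glucose-free DMEM with 2 mM pyruvate and 10 mM lactate, then treated 24 h at 37 °C with 5 μM peptide (0.1% DMSO; concentration assumes ~2000 Da). Medium glucose measured colorimetrically at 570 nm. Values are percent of untreated-cell glucose production; 0.5-1 nM insulin served as inhibitor reference.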

| Substance | Percent of Control Activity (C2C12 Cells) | Percent of Isoproterenol Control Activity (3T3-L1 Mouse Adipocytes) | Percent of Control Activity (H4-IIE Cells) |
| --- | --- | --- | --- |
| 131 (MTELLTPNWTNLSPY) [compound 131] | 107% | 110% | 97% |
| 133 (MTLGHNMIYLHTS) [compound 133] | 100% | 107% | 91% |
| 134 (MTNIFGVWAR) [compound 134] | 101% | 111% | 92% |
| 135 (MTNPENQNERKSVRFIHCPHNP) [compound 135] | 109% | 127% | 93% |
| 136 (MTNTLNSIHPPLP) [compound 136] | 99% | 124% | 94% |
| 137 (MTSLHNSFYSKDTSLRTPLMTP) [compound 137] | 116% | 115% | 96% |
| 138 (MTSPKIQNNNTPDHTANNQY) [compound 138] | 115% | 111% | 92% |
| 139 (MTWPTEQVTLGMTAQSYS) [compound 139] | 100% | 91% | 97% |
| 140 (MTYSPEQSQLQYMHQQTMFNQ) [compound 140] | 91% | 100% | 97% |
| 141 (MVEGWLLYLLVSMG) [compound 141] | 97% | 96% | 103% |
| 142 (MVEVGYNVVRVV) [compound 142] | 95% | 97% | 103% |
| 143 (MVGYLIPVWVLAIVCSDMLKPLS) [compound 143] | 98% | 107% | 111% |
| 144 (MVIICFEVSLISHCWVVISRLLM) [compound 144] | 105% | 96% | 105% |
| 145 (MVKPHLQNASI) [compound 145] | 103% | 94% | 102% |
| 146 (MVLEFGLVGYFLLGGGSGWV) [compound 146] | 106% | 97% | 99% |
| 147 (MVLFLLGMVG) [compound 147] | 107% | 99% | 98% |
| 148 (MVLNLRVHRLRRTNLQLLHTSPIIP) [compound 148] | 103% | 103% | 109% |
| 149 (MVLSSPPIFRMSCSLL) [compound 149] | 100% | 100% | 97% |
| 150 (MVLWWFGGSG) [compound 150] | 102% | 94% | 87% |
| 151 (MVNGRRTSVGV) [compound 151] | 95% | 81% | 90% |
| 152 (MVRMLLVQWW) [compound 152] | 110% | 105% | 89% |
| 153 (MVSMMTSMGM) [compound 153] | 104% | 93% | 91% |
| 154 (MVSSGDWYSWCE) [compound 154] | 107% | 89% | 98% |
| 155 (MVVCMVITFIWSCTKIFGA) [compound 155] | 107% | 97% | 95% |
| 156 (MVVHWMSGVGLPWLWGVGV) [compound 156] | 85% | 97% | 106% |
| 157 (MVVKGPLSEGGHPWGREGIWL) [compound 157] | 102% | 106% | 109% |
| 158 (MWEEAGRMSEGCLG) [compound 158] | 106% | 96% | 127% |
